From ChEMBL document CHEMBL5236579, “Hydrophobicity Determines the Bacterial Killing Rate of α-Helical Antimicrobial Peptides and Influences the Bacterial Resistance Development” (J Med Chem, 2022)
≈ marks a conversion by molar mass, not a printed value. Calls of active or inactive are those of the source. The calls are words filed in the database; no cut-off is given here. Where a SMILES comes first, the peptide text is derived from it.

Assays:
Cell membrane = assay: Induction of inner membrane permeabilization in Vibrio parahaemolyticus ATCC17802 assessed as increase in PI fluorescence intensity at 5 times MIC by propidium iodide penetration assay; format: cell membranes; conditions: time <= 200.0 min
Vibrio parahaemolyticus [1] = assay: Induction of morphological changes in Vibrio parahaemolyticus ATCC17802 assessed as massive cell collapse incubated at 5 times MIC and measured after 180 mins by scanning electron microscopy based analysis; format: functional, organism-based
Peritoneal macrophage = assay: Cytotoxicity against mouse peritoneal macrophage cells incubated for 48 hrs by MTT assay; format: toxicity, cell-based; conditions: dose < 250 µg/ml
Vibrio parahaemolyticus [2] = assay: Induction of morphological changes in Vibrio parahaemolyticus ATCC17802 assessed as surface fibrosis incubated at 5 times MIC and measured after 180 mins by scanning electron microscopy based analysis; format: functional, organism-based
Vibrio parahaemolyticus [3] = assay: Induction of morphological changes in Vibrio parahaemolyticus ATCC17802 assessed as cellular inclusion leakage incubated at 5 times MIC and measured after 180 mins by scanning electron microscopy based analysis; format: functional, organism-based
Bacillus cereus = assay: Antimicrobial activity against clinical isolates Bacillus cereus by two fold broth microdilution method; format: functional
Escherichia coli [4] = assay: Antimicrobial activity against Escherichia coli ATCC27622 by two fold broth microdilution method; format: functional
Staphylococcus aureus [5] = assay: Antimicrobial activity against clinical isolates Staphylococcus aureus by two fold broth microdilution method; format: functional
Vibrio parahaemolyticus [6] = assay: Bactericidal activity against Vibrio parahaemolyticus ATCC17802 assessed as killing rate at 0.5 X MIC by measuring time limit of detection by bacterial killing kinetic assay; format: functional
Staphylococcus aureus [7] = assay: Antimicrobial activity against Staphylococcus aureus ATCC25923 by two fold broth microdilution method; format: functional; conditions: read-out: MIC
Vibrio parahaemolyticus [8] = assay: Antimicrobial activity against Vibrio parahaemolyticus ATCC17802 by two fold broth microdilution method; format: functional
HaCaT = assay: Cytotoxicity against human HaCaT cells incubated for 48 hrs by MTT assay; format: toxicity, cell-based; conditions: dose < 250 µg/ml
Escherichia coli [9] = assay: Bactericidal activity against Escherichia coli ATCC25722 assessed as killing rate at 0.5 X MIC measured upto 180 min by bacterial killing kinetic assay; format: functional, organism-based
Staphylococcus aureus [10] = assay: Bactericidal activity against Staphylococcus aureus ATCC25923 assessed as killing rate at 0.5 X MIC measured upto 180 min by bacterial killing kinetic assay; format: functional, organism-based

MIC (Bacillus cereus) [µg/mL] | MIC (Escherichia coli [4]) [µg/mL] | MIC (Staphylococcus aureus [5]) [µg/mL] | MIC (Staphylococcus aureus [7]) [µg/mL] | Compound | Activity (Cell membrane) | Activity (Vibrio parahaemolyticus [1]) | Activity (Peritoneal macrophage) | Activity (Vibrio parahaemolyticus [2]) | Activity (Vibrio parahaemolyticus [3]) | Time (Vibrio parahaemolyticus [6]) [min] | MIC (Vibrio parahaemolyticus [8]) [µg/mL] | Activity (HaCaT) | Activity (Escherichia coli [9]) | Activity (Staphylococcus aureus [10])
9.38 (≈ 4.93 µM) | 9.38 (≈ 4.93 µM) | 18.8 (≈ 9.85 µM) | 4.69 (≈ 2.46 µM) | CC[C@H](C)[C@H](NC(=O)[C@H](C)NC(=O)[C@H](CCCNC(=N)N)NC(=O)[C@H](C)NC(=O)[C@H](CC(C)C)NC(=O)[C@H](CCCCN)NC(=O)[C@H](CCCCN)NC(=O)[C@H](Cc1ccccc1)NC(=O)[C@H](CC(C)C)NC(=O)CNC(=O)[C@H](C)N)C(=O)N[C@@H](CCCCN)C(=O)N[C@@H](CCCCN)C(=O)NCC(=O)N[C@@H](Cc1ccccc1)C(=O)N[C@@H](CCCCN)C(=O)N[C@@H](CCCCN)C(=O)O (H-AGLFKKLARAIKKGFKK-OH) | Active | Active | Dose-Dependent Effect | Active | Active | >180 | 4.69 (≈ 2.46 µM) | Dose-Dependent Effect | – | –
4.69 (≈ 2.17 µM) | 9.38 (≈ 4.35 µM) | 18.8 (≈ 8.69 µM) | 2.34 (≈ 1.08 µM) | CC[C@H](C)[C@H](NC(=O)[C@H](CCCCN)NC(=O)[C@H](CCCCN)NC(=O)[C@H](C)NC(=O)[C@H](CCCCN)NC(=O)[C@H](CCCCN)NC(=O)[C@H](CC(C)C)NC(=O)[C@@H](NC(=O)[C@H](CCCCN)NC(=O)[C@H](CCCCN)NC(=O)[C@H](Cc1c[nH]c2ccccc12)NC(=O)[C@H](Cc1ccccc1)NC(=O)[C@H](CCCCN)NC(=O)[C@H](CCCNC(=N)N)NC(=O)[C@H](CCCNC(=N)N)NC(=O)[C@@H](N)CCCCN)C(C)C)C(=O)N[C@@H](C)C(=O)O (H-KRRKFWKKVLKKAKKIA-OH) | – | – | – | – | – | >180 | 4.69 (≈ 2.17 µM) | – | Active | Active
4.69 (≈ 2.09 µM) | 4.69 (≈ 2.09 µM) | 9.38 (≈ 4.19 µM) | 2.34 (≈ 1.04 µM) | CC[C@H](C)[C@H](NC(=O)[C@H](CCCCN)NC(=O)[C@H](CCCCN)NC(=O)[C@H](CC(C)C)NC(=O)[C@H](CCCCN)NC(=O)[C@H](CCCCN)NC(=O)[C@H](CC(C)C)NC(=O)[C@@H](NC(=O)[C@H](CCCCN)NC(=O)[C@H](CCCCN)NC(=O)[C@H](Cc1c[nH]c2ccccc12)NC(=O)[C@H](Cc1ccccc1)NC(=O)[C@H](CCCCN)NC(=O)[C@H](CCCNC(=N)N)NC(=O)[C@H](CCCNC(=N)N)NC(=O)[C@@H](N)CCCCN)C(C)C)C(=O)N[C@@H](CC(C)C)C(=O)O (H-KRRKFWKKVLKKLKKIL-OH) | – | – | – | – | – | 15 | 2.34 (≈ 1.04 µM) | – | Active | Active
9.38 (≈ 4.58 µM) | 9.38 (≈ 4.58 µM) | 37.5 (≈ 18.3 µM) | 4.69 (≈ 2.29 µM) | CC[C@H](C)[C@H](NC(=O)[C@H](CCCCN)NC(=O)[C@H](CCCNC(=N)N)NC(=O)[C@H](C)NC(=O)[C@H](CC(C)C)NC(=O)[C@H](CCCCN)NC(=O)[C@H](CCCCN)NC(=O)[C@H](Cc1ccccc1)NC(=O)[C@H](CC(C)C)NC(=O)CNC(=O)[C@@H](N)CCCNC(=N)N)C(=O)N[C@@H](CCCCN)C(=O)N[C@@H](CCCCN)C(=O)NCC(=O)N[C@@H](Cc1ccccc1)C(=O)N[C@@H](CCCCN)C(=O)N[C@@H](CCCCN)C(=O)O (H-RGLFKKLARKIKKGFKK-OH) | Active | Active | Dose-Dependent Effect | Active | Active | >180 | 4.69 (≈ 2.29 µM) | Dose-Dependent Effect | – | –
